Laboratory results as given in patent US10865191B2, “Heterocyclic compounds useful as modulators of TNF alpha” (BRISTOL-MYERS SQUIBB COMPANY, priority 2015, dated 2020).
pIC50: −log10 of the molar value.

The compounds below were run against TNFα (Homo sapiens, UniProt P01375) (assay: TNF induced HEK-Blue assay (NF-kB-driven secreted alkaline phosphatase reporter)). Details: TNFα 0.5 ng/mL, HEK-Blue-CD40L cells, 18 h; read-out: TNF induced HEK-Blue assay IC50 value.
Assay type: cell-based
Protocol: TNF or CD40L-Induced HEK-Blue Assay
Test compounds serially diluted in DMSO were plated in an assay plate (LABCYTE, Cat. # LP-0200) at final concentrations ranging from 0.004 μM to 25 μM. TNFα (final concentration 0.5 ng/mL) or CD40L (final concentration 30 ng/mL) in assay buffer [DMEM, 4.5 g/l glucose (Gibco, Cat. 21063-029), 10% FBS (Sigma, F4135), 1% Penicillin-Streptomycin (Gibco, Cat. 15140-122), 1% Anti-Anti (Gibco, Cat. 15240-112) and 2 mM L-glutamine (Gibco, Cat. 25030-081)] was then added to the assay plate. After a 30 minute pre-incubation at 37° C. and 5% CO2, HEK-Blue™-CD40L cells (INVIVOGEN, Cat. Code hkb-cd40) containing a NF-kB-driven secreted alkaline phosphatase reporter gene were seeded into the assay plate at a density of 20,000 cells per well. This plate was then incubated for 18 h at 37° C. and 5% CO2. Secreted alkaline phosphatase expression was measured using QUANTI-Blue™ (INVIVOGEN, Cat. Code rep-qb1) according to manufacturer's specifications and the assay plate was read on a PerkinElmer Envision at 620 nm.
Inhibition data for the test compound over a range of concentrations was plotted as percentage inhibition of the test compound (100%=maximum inhibition). IC50 values were determined after correcting for background [(sample read-mean of low control)/(mean of high control-mean of low control)] where by the low control is DMSO without stimulation and high control is DMSO with stimulation. The IC50 is defined as the concentration of test compound which produces 50% inhibition and was quantified using the 4 parameter logistic equation to fit the data.

TNFα, sequence (P01375 77-233 limits assumed): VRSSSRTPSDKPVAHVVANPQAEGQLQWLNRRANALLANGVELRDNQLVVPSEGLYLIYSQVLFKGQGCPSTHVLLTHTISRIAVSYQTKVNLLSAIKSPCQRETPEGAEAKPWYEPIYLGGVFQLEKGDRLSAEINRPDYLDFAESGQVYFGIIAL

| SMILES | pIC50 |
| --- | --- |
| Cc1nc2ccc(-c3cnc(C(C)(C)O)nc3)cc2c(N[C@H](C)c2cc(N3CCCC3=O)ccc2F)c1Cl [Example 361, (R)-1-(3-(1-((3-chloro-6-(2-(2-hydroxypropan-2-yl)pyrimidin-5-yl)-2-methylquinolin-4-yl)amino)ethyl)-4-fluorophenyl)pyrrolidin-2-one] | > 6.00 |
| Cc1nc2ccc(-c3cnc(C(C)(C)O)nc3)cc2c(N[C@H](C)c2cc(C(N)=O)ccc2F)c1Cl [Example 387, (R)-3-(1-((3-chloro-6-(2-(2-hydroxypropan-2-yl)pyrimidin-5-yl)-2-methylquinolin-4-yl)amino)ethyl)-4-fluorobenzamide] | > 6.00 |
| CC(C)(O)c1ncc(-c2nc3c(N[C@@H](c4cc(C(N)=O)ccc4F)C(F)F)c(Cl)cnc3cc2F)cn1 [Example 493, (S)-3-(1-((3-chloro-7-fluoro-6-(2-(2-hydroxypropan-2-yl)pyrimidin-5-yl)-1,5-naphthyridin-4-yl)amino)-2,2-difluoroethyl)-4-fluorobenzamide] | > 6.00 |
| C[C@H](Nc1c(Cl)cnc2ccc(-c3cnc(C(C)(C)O)nc3)cc12)[C@H]1CCCN(C(=O)c2cn[nH]c2)C1 [Example 565, ((S)-3-((S)-1-((3-chloro-6-(2-(2-hydroxypropan-2-yl)pyrimidin-5-yl)quinolin-4-yl)amino)ethyl)piperidin-1-yl)(1H-pyrazol-4-yl)methanone] | 4.60 to 5.00 |
| CC(Nc1c(Cl)c(N)nc2ccc(-c3cnc(N4CCN(CC(=O)O)CC4)nc3)cc12)c1ccccc1F (centres unmarked) [Example 46, 2-(4-(5-(2-amino-3-chloro-4-((1-(2-fluorophenyl)ethyl)amino)quinolin-6-yl)pyrimidin-2-yl)piperazin-1-yl) acetic acid] | > 6.00 |
| O=C(O)CN1CCN(c2ncc(-c3ccc4ncc(Cl)c(N[C@@H](c5ccccc5F)C(F)F)c4c3)cn2)CC1=O [Example 76, (S)-2-(4-(5-(3-chloro-4-((2,2-difluoro-1-(2-fluorophenyl)ethyl)amino)quinolin-6-yl)pyrimidin-2-yl)-2-oxopiperazin-1-yl)acetic acid] | > 6.00 |
| Cc1nc2ccc(-c3cnc(C(C)(C)O)nc3)cc2c(N[C@H](C)c2cc(-c3ccccc3)ccc2F)c1Cl [Example 331, (R)-2-(5-(3-chloro-4-((1-(4-fluoro-[1,1′-biphenyl]—3-yl)ethyl)amino)-2-methylquinolin-6-yl)pyrimidin-2-yl)propan-2-ol] | > 6.00 |
| CC(Nc1c(Cl)cnc2ccc(-c3cnc(C(C)(C)O)nc3)cc12)c1ccc(F)cc1F (racemic) [Example 163, 2-(5-(3-chloro-4-((1-(2,4-difluorophenyl)ethyl)amino)quinolin-6-yl)pyrimidin-2-yl)propan-2-ol] | 5.00 to 6.00 |
| CC(=O)NC1CCC(O)(c2ncc(-c3ccc4ncc(Cl)c(N[C@H](C)c5ccccc5F)c4c3)cn2)CC1 (stereo partly drawn) [Example 132, (R)—N-(4-(5-(3-chloro-4-((1-(2-fluorophenyl)ethyl)amino)quinolin-6-yl)pyrimidin-2-yl)-4-hydroxycyclohexyl)acetamide] | 5.00 to 6.00 |
| CC(C)(O)c1ncc(-c2ccc3ncc(Cl)c(NC(CF)c4ccccc4F)c3c2)cn1 (racemic) [Example 10, 2-(5-(3-chloro-4-((2-fluoro-1-(2-fluorophenyl)ethyl)amino)quinolin-6-yl)pyrimidin-2-yl)propan-2-ol] | > 6.00 |
| CC(Nc1c(Cl)cnc2cc(F)c(-c3ccc(C(O)CN4CCOCC4)cc3)cc12)c1ccccc1F (centres unmarked) [Example 272, 1-(4-(3-chloro-7-fluoro-4-((1-(2-fluorophenyl)ethyl)amino)quinolin-6-yl)phenyl)-2-morpholinoethan-1-ol] | > 6.00 |
| COc1ccc(F)c([C@@H](C)Nc2c(Cl)cnc3ccc(-c4cnc(C(C)(C)O)nc4)cc23)c1 [Example 327, (R)-2-(5-(3-chloro-4-((1-(2-fluoro-5-methoxyphenyl)ethyl)amino)quinolin-6-yl)pyrimidin-2-yl)propan-2-ol] | > 6.00 |
| C[C@@H](Nc1c(Cl)cnc2ccc(-c3cnc(C(C)(C)O)nc3)cc12)c1cccc(N2CCCC2=O)c1 [Example 363, (R)-1-(3-(1-((3-chloro-6-(2-(2-hydroxypropan-2-yl)pyrimidin-5-yl)quinolin-4-yl)amino)ethyl)phenyl)pyrrolidin-2-one] | 5.00 to 6.00 |
| Cc1nc2ccc(-c3cnc(N4CCN(CC(=O)O)CC4)nc3)cc2c(NC(C)c2ccccc2F)c1Cl (racemic) [Example 309, 2-(4-(5-(3-chloro-4-((1-(2-fluorophenyl)ethyl)amino)-2-methylquinolin-6-yl)pyrimidin-2-yl)piperazin-1-yl)acetic acid] | > 6.00 |
| Cc1nc2ccc(-c3cnc(C(C)(C)O)nc3)cc2c(N[C@H](C)c2cc(OCCCO)ccc2F)c1Cl [Example 444, (R)-3-(3-(1-((3-chloro-6-(2-(2-hydroxypropan-2-yl)pyrimidin-5-yl)-2-methylquinolin-4-yl)amino)ethyl)-4-fluorophenoxy)propan-1-ol] | > 6.00 |
| CC(Nc1c(Cl)cnc2ccc(-c3ccc(C(C)(C)O)cc3)cc12)c1cn(C)cn1 (racemic) [Example 205, 2-(4-(3-chloro-4-((1-(1-methyl-1H-imidazol-4-yl)ethyl)amino)quinolin-6-yl)phenyl)propan-2-ol] | > 6.00 |
| C[C@@H](Nc1c(Cl)cnc2ccccc12)c1cc(-c2cnc(C3CC3)nc2)ccc1F [Example 519, (R)-3-chloro-N-(1-(5-(2-cyclopropylpyrimidin-5-yl)-2-fluorophenyl)ethyl) quinolin-4-amine] | 5.00 to 6.00 |
| Cc1nc2ncccc2c(N[C@H](C)c2cc(-c3cncnc3)ccc2F)c1Cl [Example 556, (R)-3-chloro-N-(1-(2-fluoro-5-(pyrimidin-5-yl)phenyl)ethyl)-2-methyl-1,8-naphthyridin-4-amine] | 4.60 to 5.00 |
| CC(Nc1c(Cl)cnc2ccc(-c3ccc(C(C)(C)O)cc3)cc12)c1ncco1 (racemic) [Example 179, 2-(4-(3-chloro-4-((1-(oxazol-2-yl)ethyl)amino)quinolin-6-yl)phenyl)propan-2-ol] | > 6.00 |
| CC(C)(O)c1ncc(-c2ccc3ncc(Cl)c(NC(C)(C)c4cccc(C(F)(F)F)c4)c3c2)cn1 [Example 182, 2-(5-(3-chloro-4-((2-(3-(trifluoromethyl)phenyl)propan-2-yl)amino)quinolin-6-yl)pyrimidin-2-yl)propan-2-ol] | 4.60 to 5.00 |
| Cc1nc2c(F)cc(-c3cnc(C(C)(C)O)nc3)cc2c(N[C@@H](c2ccccc2F)C(F)F)c1Cl [Example 299, (S)-2-(5-(3-chloro-4-((2,2-difluoro-1-(2-fluorophenyl)ethyl)amino)-8-fluoro-2-methylquinolin-6-yl)pyrimidin-2-yl)propan-2-ol] | > 6.00 |
| Cc1ccc(C)c(Nc2c(Cl)c(C(=O)Nc3ccccc3)nc3ccc(-c4ccc(C#N)nc4)cc23)c1 [Example 35, 3-chloro-6-(6-cyanopyridin-3-yl)-4-((2,5-dimethylphenyl)amino)-N-phenylquinoline-2-carboxamide] | 5.00 to 6.00 |
| Cc1nc2ccc(-c3cnc(C(C)(C)O)nc3)cc2c(N[C@@H](c2cc(C(C)(C)O)ccc2F)C(F)F)c1Cl [Example 418, (S)-2-(5-(3-chloro-4-((2,2-difluoro-1-(2-fluoro-5-(2-hydroxypropan-2-yl)phenyl)ethyl)amino)-2-methylquinolin-6-yl)pyrimidin-2-yl)propan-2-ol] | > 6.00 |
